# Laboratory results: patent publication US6737383B1, “Herbicidal oxadiazolidines” (priority 1999, dated 2004)
# How the values were obtained:
# velvetleaf = test: Test B pre/postemergence velvetleaf; type: in vivo, Abutilon theophrasti
# Summary of the method: (§1)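 Response is a visual 0-to-10 score relative to untreated plants, where 0 means no effect and 10 means complete control, taken twelve to sixteen days after application. Treatments went onto soil at planting and onto foliage of 1- to 4-leaf plants, using a surfactant-containing non-phytotoxic solvent.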
# rice = test: Test B flood test rice; type: in vivo, Oryza sativa
# Summary of the method: (§2)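 Flood test on plants grown to the 2-leaf stage; treated plants kept in greenhouse twelve to sixteen days, then visually rated against controls on a 0 (no effect) to 10 (complete control) scale.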
# cocklebur = test: Test B pre/postemergence cocklebur; type: in vivo, Xanthium strumarium
# Summary of the method: as §1
# blackgrass = test: Test B pre/postemergence blackgrass; type: in vivo, Alopecurus myosuroides
# Summary of the method: as §1
# crabgrass = test: Test B pre/postemergence crabgrass; type: in vivo, Digitaria sanguinalis
# Summary of the method: as §1
# corn = test: Test B pre/postemergence corn; type: in vivo, Zea mays
# Summary of the method: as §1
# wild oat = test: Test B pre/postemergence wild oat; type: in vivo, Avena fatua
# Summary of the method: as §1
# giant foxtail = test: Test B pre/postemergence giant foxtail; type: in vivo, Setaria faberii
# Summary of the method: as §1
# wheat = test: Test B pre/postemergence wheat; type: in vivo, Triticum aestivum
# Summary of the method: as §1
# bedstraw = test: Test B pre/postemergence bedstraw; type: in vivo, Galium aparine; settings: Preemergence
# Summary of the method: as §1
# surinam grass = test: Test B pre/postemergence surinam grass; type: in vivo, Brachiaria decumbens
# Summary of the method: as §1
# pigweed = test: Test B pre/postemergence pigweed; type: in vivo, Amaranthus retroflexus
# Summary of the method: as §1
# bamyardgrass = test: Test B flood test barnyardgrass; type: in vivo, Echinochloa crus-galli
# Summary of the method: as §2
# smallflower flatsedge = test: Test B flood test smallflower flatsedge; type: in vivo, Cyperus difformis
# Summary of the method: as §2
# morningglory = test: Test B pre/postemergence morningglory; type: in vivo, Ipomoea hederacea
# Summary of the method: as §1
# soybean = test: Test B pre/postemergence soybean; type: in vivo, Glycine max
# Summary of the method: as §1
# [1] = Postemergence, Rate 62 g/ha, scale 0 to 10, 0 is no effect, 10 is complete control
# [2] = Postemergence, Rate 125 g/ha, scale of 0 to 10 where 0 is no effect and 10 is complete control
# [3] = Postemergence, Rate 250 g/ha, scale of 0 to 10, 0 is no effect, 10 is complete control
# [4] = Preemergence, Rate 62 g/ha, scale 0 to 10 (0 no effect, 10 complete control)
# [5] = Preemergence, Rate 125 g/ha, scale of 0 to 10 where 0 is no effect and 10 is complete control
# [6] = Preemergence, Rate 250 g/ha, scale 0 to 10 (0 no effect, 10 complete control)
# [7] = Preemergence, Rate 500 g/ha, scale of 0 to 10 where 0 is no effect and 10 is complete control
# [8] = Rate 62 g/ha, flood test species, Pre-emergence, visual evaluation after twelve to sixteen days
# [9] = Rate 125 g/ha, under heading Pre-emergence, flood test species, visual evaluation after twelve to sixteen days
# [10] = Rate 250 g/ha, Pre-emergence (flood test species), scale 0 to 10, 0 is no effect, 10 is complete control
# [11] = Rate 500 g/ha, Pre-emergence section of Table B, 0 to 10 scale (0 no effect, 10 complete control)
# [12] = Postemergence, Rate 500 g/ha, scale of 0 to 10 where 0 is no effect and 10 is complete control
smiles,measurement,setting,value
COCCn1c(=O)on(C(=O)N(c2ccc(F)cc2)C(C)C)c1=O [Compound 627],"Plant response rating, Velvetleaf",velvetleaf; [1],3
same,"Plant response rating, Velvetleaf",velvetleaf; [2],4
same,Velvetleaf plant response rating,velvetleaf; [3],8
same,Velvetleaf plant response rating,velvetleaf; [4],7
same,Velvetleaf plant response rating,velvetleaf; [5],8
same,"Plant response rating, Velvetleaf",velvetleaf; [6],10
same,"Plant response rating, Velvetleaf",velvetleaf; [7],10
same,"Plant response rating, Rice (0 to 10 scale, 0 is no effect, 10 is complete control)",rice; [8],0
same,"Rice plant response rating (0 to 10 scale, 0 is no effect, 10 is complete control)",rice; [9],0
same,Rice plant response rating,rice; [10],0
same,Rice plant response rating,rice; [11],0
same,"Plant response rating, Cocklebur",cocklebur; [1],0
same,"Plant response rating, Cocklebur",cocklebur; [2],0
same,Cocklebur plant response rating,cocklebur; [3],0
same,"Plant response rating, Cocklebur",cocklebur; [12],3
same,Cocklebur plant response rating,cocklebur; [4],6
same,Cocklebur plant response rating,cocklebur; [5],6
same,"Plant response rating, Cocklebur",cocklebur; [6],6
same,"Plant response rating, Cocklebur",cocklebur; [7],7
same,"Plant response rating, Blackgrass",blackgrass; [1],8
same,"Plant response rating, Blackgrass",blackgrass; [2],8
same,Blackgrass plant response rating,blackgrass; [3],9
same,"Plant response rating, Blackgrass",blackgrass; [12],9
same,Blackgrass plant response rating,blackgrass; [4],8
same,Blackgrass plant response rating,blackgrass; [5],8
same,"Plant response rating, Blackgrass",blackgrass; [6],9
same,"Plant response rating, Blackgrass",blackgrass; [7],10
same,"Plant response rating, Crabgrass",crabgrass; [1],8
same,"Plant response rating, Crabgrass",crabgrass; [2],8
same,Crabgrass plant response rating,crabgrass; [3],9
same,"Plant response rating, Crabgrass",crabgrass; [12],9
same,Crabgrass plant response rating,crabgrass; [4],7
same,Crabgrass plant response rating,crabgrass; [5],8
same,"Plant response rating, Crabgrass",crabgrass; [6],9
same,"Plant response rating, Crabgrass",crabgrass; [7],9
same,"Plant response rating, Corn",corn; [1],0
same,"Plant response rating, Corn",corn; [2],3
same,Corn plant response rating,corn; [3],7
same,"Plant response rating, Corn",corn; [12],8
same,Corn plant response rating,corn; [4],3
same,Corn plant response rating,corn; [5],4
same,"Plant response rating, Corn",corn; [6],6
same,"Plant response rating, Corn",corn; [7],9
same,"Plant response rating, Wild oats",wild oat; [1],0
same,"Plant response rating, Wild oats",wild oat; [2],2
same,Wild oats plant response rating,wild oat; [3],6
same,Wild oats plant response rating,wild oat; [4],0
same,Wild oats plant response rating,wild oat; [5],3
same,"Plant response rating, Wild oats",wild oat; [6],5
same,"Plant response rating, Wild oats",wild oat; [7],5
same,"Plant response rating, Giant foxtail",giant foxtail; [1],9
same,Giant foxtail plant response rating,giant foxtail; [3],9
same,"Plant response rating, Giant foxtail",giant foxtail; [12],9
same,Giant foxtail plant response rating,giant foxtail; [4],9
same,Giant foxtail plant response rating,giant foxtail; [5],10
same,"Plant response rating, Giant foxtail",giant foxtail; [6],10
same,"Plant response rating, Giant foxtail",giant foxtail; [7],10
same,"Plant response rating, Wheat",wheat; [1],2
same,"Plant response rating, Wheat",wheat; [2],3
same,Wheat plant response rating,wheat; [3],6
same,Wheat plant response rating,wheat; [4],0
same,Wheat plant response rating,wheat; [5],0
same,"Plant response rating, Wheat",wheat; [6],7
same,"Plant response rating, Wheat",wheat; [7],5
same,Bedstraw plant response rating,"bedstraw; Rate 62 g/ha, scale 0 to 10 (0 no effect, 10 complete control)",2
same,Bedstraw plant response rating,"bedstraw; Rate 125 g/ha, scale of 0 to 10 where 0 is no effect and 10 is complete control",2
same,"Plant response rating, Bedstraw","bedstraw; Rate 250 g/ha, scale 0 to 10 (0 no effect, 10 complete control)",8
same,"Plant response rating, Bedstraw","bedstraw; Rate 500 g/ha, scale of 0 to 10 where 0 is no effect and 10 is complete control",8
same,"Plant response rating, B. signalgrass",surinam grass; [1],3
same,"Plant response rating, B. signalgrass",surinam grass; [2],7
same,B. signalgrass plant response rating,surinam grass; [3],7
same,"Plant response rating, B. signalgrass",surinam grass; [12],8
same,B. signalgrass plant response rating,surinam grass; [4],5
same,B. signalgrass plant response rating,surinam grass; [5],5
same,"Plant response rating, B. signalgrass",surinam grass; [6],8
same,"Plant response rating, B. signalgrass",surinam grass; [7],9
same,"Plant response rating, Redroot pigweed",pigweed; [1],2
same,"Plant response rating, Redroot pigweed",pigweed; [2],3
same,Redroot pigweed plant response rating,pigweed; [3],6
same,Redroot pigweed plant response rating,pigweed; [4],9
same,Redroot pigweed plant response rating,pigweed; [5],9
same,"Plant response rating, Redroot pigweed",pigweed; [6],10
same,"Plant response rating, Redroot pigweed",pigweed; [7],10
same,"Plant response rating, Barnyardgrass (0 to 10 scale, 0 is no effect, 10 is complete control)",bamyardgrass; [8],0
same,"Barnyardgrass plant response rating (0 to 10 scale, 0 is no effect, 10 is complete control)",bamyardgrass; [9],0
same,Barnyardgrass plant response rating,bamyardgrass; [10],0
same,Barnyardgrass plant response rating,bamyardgrass; [11],8
same,"Plant response rating, S. Flatsedge (0 to 10 scale, 0 is no effect, 10 is complete control)",smallflower flatsedge; [8],0
same,"S. Flatsedge plant response rating (0 to 10 scale, 0 is no effect, 10 is complete control)",smallflower flatsedge; [9],0
same,S. Flatsedge plant response rating,smallflower flatsedge; [10],0
same,S. Flatsedge plant response rating,smallflower flatsedge; [11],3
same,"Plant response rating, Morningglory",morningglory; [1],3
same,"Plant response rating, Morningglory",morningglory; [2],6
same,Morningglory plant response rating,morningglory; [3],6
same,"Plant response rating, Morningglory",morningglory; [12],6
same,Morningglory plant response rating,morningglory; [4],6
same,Morningglory plant response rating,morningglory; [5],6
same,"Plant response rating, Morningglory",morningglory; [6],6
same,"Plant response rating, Morningglory",morningglory; [7],8
same,"Plant response rating, Soybean",soybean; [1],2
same,"Plant response rating, Soybean",soybean; [2],4
same,Soybean plant response rating,soybean; [3],4
same,Soybean plant response rating,soybean; [4],0
same,Soybean plant response rating,soybean; [5],0
same,"Plant response rating, Soybean",soybean; [6],0
same,"Plant response rating, Soybean",soybean; [7],5
